Measurements taken from ChEMBL document CHEMBL1201862, “PubChem BioAssay data set” (2004).
Several values for one entry are separate records, joined by “and”; a condition that tells them apart may be missing. Equal entries are not always repeated. Activity calls are given as the source filed them.

Legend:
[1] = molecular target: Cytochrome P450 2D6 (Homo sapiens, UniProt P10635)
[2] = molecular target: Cytochrome P450 3A4 (Homo sapiens, UniProt P08684);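 further: CYP3A4 tested as one member of a cytochrome P450 panel screen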
[3] = molecular target: T1, Heat shock factor protein 1 (Mus musculus, UniProt P38532); assay: decrease of HSF1-responsive luciferase luminescence – cell-based, NIH3T3, dose retest, confirmation (AID 2382); assay type: functional;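 further: NIH3T3 fibroblasts with HSF1-driven luciferase reporter stressed by proteasome inhibitor MG132; luminescence from HSF1-driven luciferase expression after 8 hours of MG132 stress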
T1 sequence (P38532 whole entry): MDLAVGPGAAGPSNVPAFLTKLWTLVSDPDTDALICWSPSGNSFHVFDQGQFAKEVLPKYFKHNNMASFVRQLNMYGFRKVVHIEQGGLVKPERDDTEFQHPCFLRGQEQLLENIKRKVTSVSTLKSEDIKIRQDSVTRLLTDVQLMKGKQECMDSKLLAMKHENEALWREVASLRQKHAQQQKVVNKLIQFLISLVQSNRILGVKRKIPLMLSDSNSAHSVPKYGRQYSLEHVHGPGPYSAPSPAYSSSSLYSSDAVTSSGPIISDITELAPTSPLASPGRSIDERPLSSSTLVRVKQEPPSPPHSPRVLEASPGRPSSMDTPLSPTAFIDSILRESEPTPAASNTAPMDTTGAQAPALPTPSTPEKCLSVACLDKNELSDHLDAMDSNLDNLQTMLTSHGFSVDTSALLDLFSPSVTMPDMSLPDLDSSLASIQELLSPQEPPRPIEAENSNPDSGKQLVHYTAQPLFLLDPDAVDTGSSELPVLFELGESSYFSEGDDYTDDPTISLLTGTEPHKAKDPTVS

[4] = molecular target: T2, Cytochrome P450 1A2 (Homo sapiens, UniProt P05177);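 further: PubChem cytochrome P450 panel assay, CYP1A2 panel member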
T2 sequence (P05177 whole entry): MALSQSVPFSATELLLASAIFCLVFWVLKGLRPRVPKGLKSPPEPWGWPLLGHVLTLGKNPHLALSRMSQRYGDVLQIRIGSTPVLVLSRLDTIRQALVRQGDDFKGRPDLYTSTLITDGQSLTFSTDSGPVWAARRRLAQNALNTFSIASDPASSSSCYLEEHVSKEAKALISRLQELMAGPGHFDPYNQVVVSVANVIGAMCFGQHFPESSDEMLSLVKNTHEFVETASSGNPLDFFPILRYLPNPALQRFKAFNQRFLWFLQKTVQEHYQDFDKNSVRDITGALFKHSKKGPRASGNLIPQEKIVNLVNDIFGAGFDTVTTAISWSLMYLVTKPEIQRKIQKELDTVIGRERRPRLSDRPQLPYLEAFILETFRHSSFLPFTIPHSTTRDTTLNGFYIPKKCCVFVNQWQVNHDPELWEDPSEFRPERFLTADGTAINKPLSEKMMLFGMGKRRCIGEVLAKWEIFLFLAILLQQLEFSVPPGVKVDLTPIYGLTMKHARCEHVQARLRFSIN

[5] = P. falciparum Dd2 growth inhibitors, dose response, SYBR Green, cherry-picked samples (AID 1159567); assay type: functional, cell-based
[6] = molecular target: Cytochrome P450 2C19 (Homo sapiens, UniProt P33261); assay: Cytochrome panel assay with activity outcomes. Panel member name: p450-cyp2c19 Compounds with AC50 equal or less than 10 uM are considered active; assay type: functional
Sequence of Cytochrome P450 2C19 (P33261 whole entry): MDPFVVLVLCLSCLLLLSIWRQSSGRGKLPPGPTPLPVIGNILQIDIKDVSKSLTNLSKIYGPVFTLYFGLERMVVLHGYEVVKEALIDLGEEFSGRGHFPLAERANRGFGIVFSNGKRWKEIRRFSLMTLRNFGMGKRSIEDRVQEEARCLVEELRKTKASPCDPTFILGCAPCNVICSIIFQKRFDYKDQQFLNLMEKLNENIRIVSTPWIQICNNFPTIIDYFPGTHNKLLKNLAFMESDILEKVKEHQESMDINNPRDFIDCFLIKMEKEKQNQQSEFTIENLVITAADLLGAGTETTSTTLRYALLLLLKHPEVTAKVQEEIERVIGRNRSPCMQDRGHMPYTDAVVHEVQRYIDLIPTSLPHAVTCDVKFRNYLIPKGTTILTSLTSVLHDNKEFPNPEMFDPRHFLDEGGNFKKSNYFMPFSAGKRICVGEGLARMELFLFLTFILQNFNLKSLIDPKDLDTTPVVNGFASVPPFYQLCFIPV

Sequence of Cytochrome P450 3A4 (P08684 whole entry): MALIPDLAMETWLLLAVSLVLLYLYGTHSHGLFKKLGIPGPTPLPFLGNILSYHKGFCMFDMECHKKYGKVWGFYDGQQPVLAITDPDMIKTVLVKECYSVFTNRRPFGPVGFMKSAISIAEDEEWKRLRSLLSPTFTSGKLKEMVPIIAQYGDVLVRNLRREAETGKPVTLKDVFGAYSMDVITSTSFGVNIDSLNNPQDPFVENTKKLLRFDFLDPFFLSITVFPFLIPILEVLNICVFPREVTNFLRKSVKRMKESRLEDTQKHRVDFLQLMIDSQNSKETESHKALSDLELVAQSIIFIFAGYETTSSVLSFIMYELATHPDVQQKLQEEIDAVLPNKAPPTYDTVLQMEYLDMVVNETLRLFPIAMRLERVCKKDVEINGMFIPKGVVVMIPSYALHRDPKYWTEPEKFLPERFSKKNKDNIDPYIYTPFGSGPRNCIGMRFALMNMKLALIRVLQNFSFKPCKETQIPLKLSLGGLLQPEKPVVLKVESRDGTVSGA
Sequence of Cytochrome P450 2D6 (P10635 whole entry): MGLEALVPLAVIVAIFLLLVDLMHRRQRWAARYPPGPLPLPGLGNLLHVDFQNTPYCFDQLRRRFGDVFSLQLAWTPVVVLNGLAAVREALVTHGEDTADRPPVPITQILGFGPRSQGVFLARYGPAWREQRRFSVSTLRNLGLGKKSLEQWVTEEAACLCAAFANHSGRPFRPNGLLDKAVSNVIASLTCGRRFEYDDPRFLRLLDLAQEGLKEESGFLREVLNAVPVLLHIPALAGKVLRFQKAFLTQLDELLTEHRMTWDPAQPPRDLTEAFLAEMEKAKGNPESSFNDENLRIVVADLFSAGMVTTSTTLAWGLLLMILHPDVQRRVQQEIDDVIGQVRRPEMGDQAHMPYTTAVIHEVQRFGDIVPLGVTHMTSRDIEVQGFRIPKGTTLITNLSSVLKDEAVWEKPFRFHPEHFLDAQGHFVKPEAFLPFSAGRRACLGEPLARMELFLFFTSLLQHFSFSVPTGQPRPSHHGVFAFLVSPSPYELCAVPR

SMILES: Cc1ccccc1-c1cc(Nc2ccc(F)cc2)ncn1
- AC50 [1]: 31.6 µM (inconclusive)
- AC50 [2]: 39.8 µM (inconclusive)

SMILES: CSc1ccccc1NC(=O)C1=CC(c2ccc(C)cc2)=NS(=O)(=O)N1C
- EC50 [3]: > 195 µM (not active)

SMILES: Cc1cc2ccccc2c(=O)n1CC(=O)Nc1ccc2c(c1)OCO2
- EC50 [3]: > 195 µM (not active)

SMILES: Cc1ccc(Cn2nc(C)c(NC(=O)c3cc(-c4ccco4)on3)c2C)cc1
- AC50 [4]: 39.8 µM (inconclusive)

SMILES: CC(=O)N1CCC2(CC1)CCN(c1cccc(-c3ccccc3)c1)CC2
- AC50 [1]: 31.6 µM (inconclusive)

SMILES: CC1CN(C(=O)Nc2ccc3c(c2)OCCO3)CC(C)O1 (stereo not drawn)
- EC50 [3]: > 195 µM (not active)

SMILES: Cc1ccc(NC2=NC(=O)/C(=C\c3cccs3)S2)cc1C
- EC50 [3]: > 195 µM (not active)

SMILES: COc1ccc2c3c([nH]c2c1)[C@H](CO)N(Cc1cc(F)ccc1F)CC31CN(C(=O)C2CCC2)C1
- AC50 [5]: 7.04 µM (active)

SMILES: CCn1c(SCC(=O)N(C)C2CCS(=O)(=O)C2)nnc1-c1cccs1 (stereo not drawn)
- EC50 [3]: > 195 µM (not active)

SMILES: COc1ccc2c3c([nH]c2c1)[C@H](CO)N(Cc1ccc(F)cc1)CC31CCN(C(C)=O)CC1
- AC50 [5]: 5.92 µM (active)

SMILES: CN(C)c1ncc2nc(CCc3ccccc3)c(=O)n(CCC#N)c2n1
- AC50 [2]: 20 µM (inconclusive)

SMILES: Cn1c(C(=O)O)c(CC(=O)Nc2ccc3c(c2)OCCO3)c2ccccc21
- EC50 [3]: 1.95 µM (active)

SMILES: CCCCn1c(C(C)NC(=O)CC)nc2ccccc21 (stereo not drawn)
- EC50 [3]: > 195 µM (not active)

SMILES: O=C(O)c1cccc(N2C(=O)/C(=C/c3ccc([N+](=O)[O-])cc3)C=C2c2ccccc2)c1
- EC50 [3]: > 195 µM (not active)

SMILES: CC(C)=CCC/C(C)=C/CC/C(C)=C/CSc1ccccc1C(=O)O [SALIRASIB]
- AC50 [2]: 31.6 µM (inconclusive)

SMILES: C[C@@H]1CN([C@@H](C)CO)C(=O)c2c(c3ccccc3n2C)-c2ccccc2CO[C@H]1CN(C)C(=O)Cc1ccccc1
- AC50 [5]: 5.21 µM (active)

SMILES: COc1ncc2nc(-c3cccs3)c(=O)n(Cc3cccs3)c2n1
- AC50 [1]: 3.98 µM (inconclusive)

SMILES: COc1cccc(-c2ccc3c(c2)[C@@H]2[C@@H](CCN2C(=O)C2CCCCC2)[C@H](CO)N3)c1
- AC50 [5]: 4.18 µM (active)

SMILES: CC(Sc1nc(NCc2ccccc2)nc(N(C)C)n1)C(=O)Nc1ccccc1 (stereo not drawn)
- AC50 [1]: 15.8 µM (inconclusive)

SMILES: CC(CCc1ccccc1)NC(=O)/C=C/c1ccccc1 (stereo not drawn)
- AC50 [2]: 25.1 µM (inconclusive)

SMILES: Cc1cc(Cc2cc(Cc3cc(C)cc(C(C)(C)C)c3O)c(C)cc2C)c(O)c(C(C)(C)C)c1
- AC50 [1]: 3.98 µM (inconclusive)

SMILES: CCCOc1ccc(OCCNC2CCCC2)cc1
- AC50 ([6]; read-out: AC50): 31.6 µM (inconclusive)
- AC50 [4]: 14.1 µM (inconclusive)

SMILES: O=C(Nc1cccc(F)c1)N[C@@H]1CC[C@H](CCNS(=O)(=O)c2cccc(Cl)c2)O[C@H]1CO
- AC50 [5]: 31.2 µM (active)

SMILES: CC(=O)Cc1c[nH]c2ccccc12
- EC50 [3]: > 195 µM (not active)

SMILES: C[C@@H](C(=O)Nc1ccc2ccccc2c1)[C@H]1C[C@]1(C)[C@H](NC(=O)c1cnccn1)c1ccccc1
- AC50 [4]: 25.1 µM (inconclusive)

SMILES: O=C1c2ccccc2C(Nc2ccc3c(c2)OCCO3)N1c1ccccn1 (stereo not drawn)
- EC50 [3]: 57.5 µM (active)

SMILES: C/C=C/c1ccc([C@H]2[C@@H](CO)N(C(=O)CC)[C@@H]2CNCC2CCCCC2)cc1
- AC50 [5]: 4.04 µM (active)

SMILES: O=c1cnc2cnc(Oc3ccccc3)nc2n1Cc1ccc(F)cc1
- AC50 [2]: 20 µM (inconclusive)

SMILES: CC(=O)NCCNc1ncnc2ccc(-c3ccccc3C#N)cc12
- AC50 [2]: 25.1 µM (inconclusive)
- AC50 ([6]; read-out: AC50): 10 µM (inconclusive)

SMILES: CC(C)NC(=O)N1CCC2(CC1)CCN(C(=O)c1ccncc1)CC2
- AC50 [2]: 25.1 µM (inconclusive)

SMILES: Cc1cccc(CNc2ccnc(-c3cccc(NS(C)(=O)=O)c3)n2)c1
- AC50 [1]: 39.8 µM (inconclusive)

SMILES: Cc1oc2c(C)c(O)ccc2c(=O)c1-c1ccc2ccccc2n1
- AC50 [2]: 7.94 µM (inconclusive)
- AC50 ([6]; read-out: AC50): 2.82 µM (inconclusive)

SMILES: COc1cccc(N(CC(=O)Nc2cccnc2)S(C)(=O)=O)c1
- EC50 [3]: > 195 µM (not active)

SMILES: O=C(C[C@H]1C[C@H]2c3cc(NC(=O)Cc4ccncc4)ccc3O[C@H]2[C@H](CO)O1)NCc1ccccc1
- AC50 [5]: 4.55 µM (active)

SMILES: c1cc(C2N3CCCN2CC3)ccn1 (stereo not drawn)
- AC50 [6]: inconclusive
- AC50 [4]: 1.26 µM (inconclusive)

SMILES: OC[C@@H]1CC[C@@H]2O[C@H](CCc3ccc(C#Cc4ccccc4)cc3)[C@H](n3cc(-c4ccccc4)nn3)C[C@@H]2O1
- AC50 [5]: 3.86 µM (active)

SMILES: N#C/C(=C\c1ccccn1)c1ccccn1
- EC50 [3]: > 195 µM (not active)

SMILES: CNc1ncnc2ccc(-c3ccccc3C#N)cc12
- AC50 [2]: 12.6 µM (inconclusive)

SMILES: Oc1cc2c(c(Cl)c1O)CCNC[C@H]2c1ccccc1
- AC50 [2]: 39.8 µM (inconclusive) and 12.6 µM (inconclusive)

SMILES: COc1ccc(NS(=O)(=O)NC(=O)c2cn(C)c3ccccc23)cc1
- EC50 [3]: > 195 µM (not active)

SMILES: CN1CCN([C@@H]2Cc3ccccc3Sc3ccc(Cl)cc32)CC1
- AC50 ([6]; read-out: AC50): 25.1 µM (inconclusive)
- AC50 [4]: 12.6 µM (inconclusive)

SMILES: O=C1/C(=C\c2ccccc2)C[C@@]2(O)[C@H]3Cc4ccc(O)c5c4[C@@]2(CCN3CC2CC2)[C@@H]1O5
- AC50 [2]: 31.6 µM (inconclusive)
- AC50 ([6]; read-out: AC50): 15.8 µM (inconclusive)
- AC50 [4]: 31.6 µM (inconclusive)

SMILES: O=C(c1ccccc1F)N1CC[C@H]2[C@H](CO)Nc3ccc(C#Cc4ccc(F)cc4)cc3[C@H]21
- AC50 [5]: 4.96 µM (active)

SMILES: CC(C)=NO[C@@H](C)CN1CCCCc2nc(C)c(C)cc21
- AC50 [2]: 3.98 µM (inconclusive)

SMILES: Cc1ccc(N(Cc2cc3ccc(C)cc3nc2O)C(=O)c2cccs2)cc1
- EC50 [3]: > 195 µM (not active)

SMILES: CN(C)Cc1ccccc1-c1cc(NCc2cccs2)ncn1
- AC50 [2]: 10 µM (inconclusive)

SMILES: Cc1onc(-c2c(F)cccc2Cl)c1C(=O)c1ccccc1
- EC50 [3]: > 195 µM (not active)

SMILES: O=C(CNC1CCCCCC1)Nc1ccccc1N1CCCCC1
- AC50 [4]: 14.1 µM (inconclusive)

SMILES: O=C(CSc1ccc(Br)cc1)Nc1ccccc1N1CCOCC1
- EC50 [3]: > 195 µM (not active)

SMILES: CC(C)Oc1cccc(C(=O)NC(=S)N2CCN(c3ccc(C(F)(F)F)cc3[N+](=O)[O-])CC2)c1
- AC50 [2]: 14.1 µM (inconclusive)

SMILES: CCCNC(=O)c1ccc(N2CCC3(CC2)CC(c2cccc(Br)c2)=NO3)c(NC(=O)c2ccc(Br)cc2)c1
- EC50 [3]: > 195 µM (not active)

SMILES: Cc1ccccc1-c1nccc(NCCN2CCOCC2)n1
- AC50 [1]: 31.6 µM (inconclusive)

SMILES: N#Cc1ccc(CN2CCC3(CC2)CCN(S(=O)(=O)c2ccccc2)CC3)cc1
- AC50 [2]: 20 µM (inconclusive)

SMILES: C[C@@H]1CN([C@H](C)CO)C(=O)c2cccc(NS(=O)(=O)c3ccccc3)c2O[C@H]1CN(C)Cc1ccc(-c2ccccc2)cc1
- AC50 [5]: 3.68 µM (active)

SMILES: O=C(O)CCCc1ccc2ccccc2c1
- AC50 [4]: 3.16 µM (inconclusive)

SMILES: Cc1ccc(CNC(=O)COC(=O)c2cnccn2)cc1
- AC50 [2]: 17.8 µM (inconclusive)
- AC50 [6]: inconclusive

SMILES: CS(=O)(=O)Nc1cccc(-c2nccc(NCc3cccs3)n2)c1
- AC50 [1]: 25.1 µM (inconclusive)
- AC50 ([6]; read-out: AC50): 25.1 µM (inconclusive)

SMILES: COc1cc(C(=O)Nc2ccc3c(c2)OCCO3)c(-n2cnnn2)cc1OC
- AC50 [2]: 25.1 µM (inconclusive)
- AC50 [6]: inconclusive
- AC50 [4]: 2.51 µM (inconclusive)

SMILES: Cc1ccc(C)c(N(CC(=O)NC2CCCC2)C(=O)c2cc3cc4cccc(C)c4nc3s2)c1
- AC50 [2]: 2.51 µM (inconclusive)
- AC50 ([6]; read-out: AC50): 6.31 µM (inconclusive)

SMILES: O=[N+]([O-])c1cccc(-c2nnc(-c3ccccc3)o2)c1
- EC50 [3]: > 195 µM (not active)
